# Experimental data: patent publication US20260069694A1, “IDENTIFICATION OF HIGHLY IMMUNOSUPRESIVE TREG POPULATION IN TUMOR MICROENVIRONMENTS” (THE TRUSTEES OF COLUMBIA UNIVERSITY IN THE CITY OF NEW YORK, priority 2023, published 2026)
# What was measured:
# [1] = tested on: Tregs that were expanded in the presence of PDAC cells; assay: FAM-iRGD binding to Tregs expanded with PDAC cells (flow cytometry); set-up: species or system mouse; settings: flow cytometry MFI
# Procedure: The isolated immune cells were subjected to flow cytometry for quality check and to analyze the cell populations of interest. […] The binding was analyzed by flow cytometry.
# CD4+ T cells were magnetically isolated from the spleens of healthy C57B6129SF1/J mice using a mouse CD4+ T cell isolation kit (Miltenyi Biotec™). The CD4+ T cells were cultured for 3 days with or without KPC-derived PDAC cells in the presence of low dose anti-CD3/CD28 beads (×40 dilution; Miltenyi Biotec™), TGF-β1 (5 ng/ml; Bio-Techne Corporation™), and recombinant mouse interleukin-2 (mIL-2, 100 U/ml; Roche™), and subjected to flow cytometry as described elsewhere. In some cases, 1.0 mM iRGD was added to the culture in binding buffer supplemented with mIL-2 to study the effect on apoptosis. The cells were then stained with FITC-conjugated annexin V (BioLegend™) and 7-AAD (BioLegend™) for 15 minutes at room temperature to detect apoptotic cells by flow cytometry.
# For the data presented in FIG. 16 through FIG. 19, CD4+ T cells isolated from the spleen of healthy C57B6129SF1/J hybrid mice were expanded for 3 days in vitro in the presence of KPC-derived PDAC cells. Flow cytometry was performed for subsequent analyses. […] The bar diagram summarizes the median fluorescence intensity (MFI) from 4 independent experiments. […] Apoptosis was quantitated by measuring annexin V and 7-AAD double positive cells by flow cytometry (n=3).
# [2] = tested on: Tregs and CD8+ T cells in PDAC tissue and spleen; assay: Orthotopic KPC-derived PDAC mice: flow cytometry and IF of T cells in tumor and spleen; type: in vivo, mouse
# Procedure: The treatment studies in orthotopic syngeneic PDAC mice were performed as follows. Eight days after orthotopic implantation of 5.0×10^5 KPC-derived PDAC cells, the mice were randomized into respective treatment cohorts, such as intravenous (IV) phosphate buffered saline (PBS) alone, IV iRGD alone (300 μg/25 g), IV PBS+IP antimouse PD-L1 mAb (200 μg/mouse; clone MIH6; BioLegend™), IV iRGD+IP anti-mouse PD-L1 mAb, IV PBS+IV Gem (4 mg/kg; MilliporeSigma™), and IV iRGD+IV GEM+IP anti-mouse PD-L1 mAb. The treatment was given 3 times a week for 2 weeks starting 8 days after tumor cell implantation. The tumors and major organs were harvested at the end of the studies on day 22, weighed, and processed for flow cytometry, IF, and IHC. The treatment studies were terminated according to the guidelines by the IACUC at Columbia University. Treatment studies in transgenic KPC mice were performed as previously described.
# Tumors from orthotopic PDAC mice were minced into 2-4 mm pieces and added with an enzyme mix from a tumor dissociation kit (Miltenyi Biotec™) in Roswell Park Memorial Institute medium 1640 (Cytiva™). The tissues were dissociated using a gentle MACS Dissociator (Miltenyi Biotec™) followed by a 40-minute incubation at 37° C. The samples were then centrifuged for 10 minutes at 3000×g in the presence of debris removal solution (Miltenyi Biotec™) and 10 minutes at 1000×g in cooled PBS. The supernatant was aspirated to remove the debris. Splenocytes were prepared by gently grinding the spleen and filtrating the resulting cell suspension through a 40 μm cell strainer. Red cells were lysed with an ACK lysing buffer (Thermo Fisher Scientific™
# Immune cells isolated from the tumor or spleen, or cells cultured in vitro were tested for surface marker by staining with the following reagents for 20 minutes at 4° C.: Brilliant Violet 650™-conjugated anti-mouse CD3 Ab (clone 17A2; BioLegend), PerCP/Cyanine5.5-conjugated anti-mouse CD4 Ab (clone GK1.5; BioLegend™), PE/Cyanine7-conjugated antimouse CD8a Ab (clone 53-6.7; BioLegend™), PE-conjugated anti-mouse CD25 Ab (clone 7D4; Miltenyi Biotec™), PE/Cyanine7-conjugated anti-mouse CD25 Ab (clone PC61; BioLegend™), Brilliant Violet 421™ or 711™-conjugated anti-mouse CD304/NRP-1 Ab (clone 3E12; BioLegend™), Alexa Fluor® 647-conjugated anti-mouse integrin αvβ5 Ab (clone ALULA; BD Biosciences™), PE-conjugated anti-mouse CD198 (CCR8) Ab (clone SA214G2; BioLegend™), Zombie NIR™ (BioLegend™), or Aqua™ Fixable Viability Kit (BioLegend™). Intracellular staining of immune cells was performed using the following Abs and a Foxp3 staining buffer kit (eBioscience) according to the manufacturer's instructions: Brilliant Violet 421™-conjugated anti-Foxp3 Ab (FJK-16s; eBioscience™) Pacific Blue™-conjugated anti-mouse Foxp3 Ab (clone MF-14; BioLegend™), cleaved caspase-3 (Asp175) (5A1E) rabbit mAb (Cell Signaling™), and Alexa Flour™ 488-conjugated donkey anti-rabbit secondary Ab (Thermo Fisher Scientific™)
# The Effect of iRGD Therapy on the Proportion of CD8+ T cells, Tregs, and Non-Treg CD4+ T Cells in the PDAC Tissue and the Spleen was tested. C57B6129SF1/J hybrid mice bearing orthotopic KPCderived PDAC tumors were treated with PBS or iRGD 3 times a week for 2 weeks. The tumors and spleen were collected 3, 7 and 14 days after the treatment was started. The proportion of CD8+ T cells, CD4+CD25+ T cells (Tregs), and CD4+CD25neg T cells (non-Tregs) in the tumors (FIG. 6A) and the spleen (FIG. 6B) were analyzed by flow cytometry (n=3 per arm).
# In addition, C57B6129SF1/J hybrid mice bearing KPC-derived orthotopic PDAC tumors were intravenously treated with PBS or iRGD 3 times a week for 2 weeks. Tumors and spleen were collected at 3, 7 and 14 days after the treatment was started. […]
sequence,measurement,setting,value
CRGDKGPDC [iRGD],binding to αvβ5 integrin+ Tregs induced in the presence of PDAC cells,[1],Binds
same,proportion of Tregs in the PDAC tissue,"[2]; CD4+CD25+ Tregs among CD4+ T cells, tumor, in 7 days, vs PBS",significantly reduced the proportion of Tregs
same,CD8/Treg ratio in the spleen,[2]; spleen of the PDAC mice,did not affect
same,proportion of CD8+ T cells in the spleen,[2]; spleen of the PDAC mice,did not affect
same,proportion of Tregs in the spleen,[2]; spleen of the PDAC mice,did not affect
same,proportion of CD8+ T cells in the PDAC tissue,"[2]; tumor, flow cytometry, vs PBS",increased the proportion of CD8+ T cells
same,CD8/Treg ratio in the PDAC tissue,"[2]; tumor, in 7 days, vs PBS",significantly increased the CD8/Treg ratio
